From ChEMBL document CHEMBL1201862, “PubChem BioAssay data set” (2004)
The source made the active and inactive calls.

Legend:
[1] = target: T1, Luciferin 4-monooxygenase (Photinus pyralis, UniProt P08659); assay: inhibition of purified Photinus pyralis luciferase – biochemical, luminescence, dose response (AID 1891)
[2] = target: T1, Luciferin 4-monooxygenase; assay: Counter Screen for Luciferase-based Assay Positives. [Related pubchem assays: 620, 618, 411 ]
[3] = Luminescence Cell-Based Dose Confirmation HTS to Identify Inhibitors of Platelet Dense Granule Release. [Related pubchem assays: 1663 (Primary HTS), 1678 (Summary of Project)]; format: functional
HT-1080 = assay: HT1080 cell viability loss – fluorescence readout (AID 620); format: functional, cell-based; conditions: Homo sapiens
[4] = CCR5-tropic HIV-1 fusion blockers – cell-based, CCR5-tropic Env, dose response (AID 2279); format: functional
Vero = assay: viability of Vero cells under compound – cytotoxicity control for flavivirus capping enzyme inhibitors (AID 588742); format: functional; conditions: Chlorocebus sabaeus
Genome polyprotein = Genome polyprotein (dengue virus type 2, UniProt P29990); assay: flavivirus cap methylation enzyme inhibition – biochemical, confirmation dose response, primary screen (AID 588689); format: functional
Genome polyprotein, sequence (P29990 2492-3391 limits assumed): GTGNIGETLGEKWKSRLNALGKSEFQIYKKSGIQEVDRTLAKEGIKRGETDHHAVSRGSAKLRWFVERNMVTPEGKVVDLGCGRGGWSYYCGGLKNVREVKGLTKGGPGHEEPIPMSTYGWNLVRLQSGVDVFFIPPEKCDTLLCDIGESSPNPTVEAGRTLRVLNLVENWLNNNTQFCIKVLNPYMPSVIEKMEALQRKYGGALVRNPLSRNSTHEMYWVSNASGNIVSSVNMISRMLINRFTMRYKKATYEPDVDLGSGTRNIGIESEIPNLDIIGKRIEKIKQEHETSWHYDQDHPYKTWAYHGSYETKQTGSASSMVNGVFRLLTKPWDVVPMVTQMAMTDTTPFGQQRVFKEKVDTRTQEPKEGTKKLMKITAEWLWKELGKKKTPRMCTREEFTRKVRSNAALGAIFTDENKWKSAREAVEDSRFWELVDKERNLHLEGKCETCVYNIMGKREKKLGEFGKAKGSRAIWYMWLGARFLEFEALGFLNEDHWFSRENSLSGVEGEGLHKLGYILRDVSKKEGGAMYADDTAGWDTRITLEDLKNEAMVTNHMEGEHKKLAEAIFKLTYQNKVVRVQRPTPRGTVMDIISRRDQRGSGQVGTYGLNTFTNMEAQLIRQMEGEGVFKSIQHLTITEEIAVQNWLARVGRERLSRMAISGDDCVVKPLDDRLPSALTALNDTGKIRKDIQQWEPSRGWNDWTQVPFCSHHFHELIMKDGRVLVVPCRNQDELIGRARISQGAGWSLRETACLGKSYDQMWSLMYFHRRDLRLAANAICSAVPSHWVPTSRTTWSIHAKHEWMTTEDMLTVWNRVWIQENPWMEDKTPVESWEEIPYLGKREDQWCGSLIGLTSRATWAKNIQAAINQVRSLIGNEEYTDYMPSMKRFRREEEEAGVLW

INS1 = assay: INS-1E survival protection against cytokine death – cell-based, luminescence, retest, dose response (AID 449756); format: functional; conditions: Rattus norvegicus;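 also: cell death triggered by IL-1 beta plus TNF-alpha plus IFN-gamma mixture; protective hits raise ATP signal compared with cytokine alone wells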
[5] = toxicity toward HepG2 liver cells – cell-based, plate reader, cherry-pick, antagonist series, cytotoxicity control, dose response (AID 743416); format: functional
H4 = assay: Luminescence Cell-Based Dose Response HTS to Identify Activators of 5'UTR Stem-Loop Driven Prion Protein mRNA Translation in H4 Neuroglioblastoma Cells. [Related pubchem assays: 1829 (Project Summary), 1814 (Primary HTS)]; format: functional; conditions: Homo sapiens
[6] = Luminescence Cell-Based Dose Confirmation HTS to Identify Activators of 5'UTR Stem-Loop Driven Alpha-Synuclein mRNA Translation in H4 Neuroglioblastoma Cells. [Related pubchem assays: 1829 (Project Summary), 1814 (Primary HTS)]; format: functional
[7] = target: Neurotensin receptor type 1 (Homo sapiens, UniProt P30989); format: functional;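 also: Image-based confirmatory dose-response assay measuring agonist activity at NTR1; NTR1-expressing U2OS osteosarcoma cells imaged for beta-arrestin GFP spot formation; agonist potency where compounds increase beta-arrestin recruitment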
[8] = target: Sphingosine 1-phosphate receptor 3 (Homo sapiens, UniProt Q99500); assay: Dose response cell-based high throughput screening assay for antagonists of the Sphingosine 1-Phosphate Receptor 3 (S1P3). [Related pubchem assays: 1429, 485 ]; format: functional
[9] = target: 5-hydroxytryptamine receptor 1E (Homo sapiens, UniProt P28566); assay: Counterscreen assay for S1P3 antagonists: Dose response cell-based high throughput screening assay to identify antagonists of the 5-Hydroxytryptamine Receptor Subtype 1E (5HT1E). [Related pubchem assays: 1429, 485 ]; format: functional
5-hydroxytryptamine receptor 1E, sequence (P28566 whole entry): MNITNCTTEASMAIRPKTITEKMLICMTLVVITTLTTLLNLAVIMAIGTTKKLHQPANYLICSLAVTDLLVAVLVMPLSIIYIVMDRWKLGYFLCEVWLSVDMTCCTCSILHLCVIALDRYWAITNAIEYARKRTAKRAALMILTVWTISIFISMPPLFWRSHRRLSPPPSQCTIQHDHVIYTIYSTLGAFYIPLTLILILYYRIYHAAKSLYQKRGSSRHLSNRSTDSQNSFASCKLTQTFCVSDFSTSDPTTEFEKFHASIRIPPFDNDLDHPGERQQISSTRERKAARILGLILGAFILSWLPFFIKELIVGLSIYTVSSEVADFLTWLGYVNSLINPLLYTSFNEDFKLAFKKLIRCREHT

[10] = blockade of melanocortin 4 receptor signaling – cell-based, plate reader, cherry pick, counter-screen for LGR2 antagonist project, dose response (AID 743444); format: functional;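 also: transfected HEK 293 cells stimulated with alpha-MSH peptide; potency of inhibitors of the alpha-MSH evoked signal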
[11] = Luminescence Cell-Based Dose Response HTS to Identify Activators of Luciferase Translation or Activity in H4 […] Cells. [Related pubchem assays: 1829 (Project Summary), 1814 (Primary HTS)]; format: functional
[12] = blockers of bursicon-stimulated LGR2 cAMP reporter – cell-based, HEK293, CRE-luciferase reporter, cherry pick, set 2, dose response (AID 743343); format: functional;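 also: transfected cells were stimulated with diluted bursicon conditioned medium after compound addition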
[13] = HEK-293T viability loss after treatment – luminescence, T-cell screen hits, cytotoxicity control for TCR NF-kB inhibitor project, dose response (AID 489026); format: functional, cell-based;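 also: cells exposed to compound about 14 hours before the viability readout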
Estrogen receptor = target: T2, Estrogen receptor (Homo sapiens, UniProt P03372); assay: blockers of SRC-3 recruitment to ERα – biochemical, ELISA, streptavidin-HRP readout, orthogonal assay, confirmation (AID 1079)
T2 sequence (P03372 whole entry): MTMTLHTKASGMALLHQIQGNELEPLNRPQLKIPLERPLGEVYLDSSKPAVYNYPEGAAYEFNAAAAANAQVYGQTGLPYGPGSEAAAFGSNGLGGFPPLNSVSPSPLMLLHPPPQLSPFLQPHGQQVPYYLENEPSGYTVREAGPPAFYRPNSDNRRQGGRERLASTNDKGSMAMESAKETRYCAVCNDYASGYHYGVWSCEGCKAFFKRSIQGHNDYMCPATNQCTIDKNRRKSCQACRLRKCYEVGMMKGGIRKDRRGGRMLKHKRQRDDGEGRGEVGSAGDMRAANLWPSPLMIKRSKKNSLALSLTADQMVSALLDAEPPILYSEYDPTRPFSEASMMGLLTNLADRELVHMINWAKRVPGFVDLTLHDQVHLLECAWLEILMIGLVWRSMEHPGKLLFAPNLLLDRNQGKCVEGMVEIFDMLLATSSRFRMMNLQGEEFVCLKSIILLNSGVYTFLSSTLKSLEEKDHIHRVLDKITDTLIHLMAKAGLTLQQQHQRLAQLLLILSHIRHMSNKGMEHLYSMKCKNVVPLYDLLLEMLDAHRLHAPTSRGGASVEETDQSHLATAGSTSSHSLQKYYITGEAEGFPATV

[14] = alpha-synuclein stem-loop luciferase translation blockers – H4 neuroglioma cells, luminescence, confirmation (AID 1988); format: functional, cell-based
[15] = Luminescence Cell-Based Dose Response HTS to Identify Inhibitors of 5'UTR Stem-Loop Driven Prion Protein mRNA Translation in H4 Neuroglioblastoma Cells. [Related pubchem assays: 1827 (Project Summary), 1813 (Primary HTS)]; format: functional
[16] = Luminescence-based counterscreen assay for KLF5 inhibitors: dose response cell-based high throughput screening assay to identify cytotoxic compounds using the IEC-6 intestinal epithelial cell line. [Related pubchem assays: 1700 (Primary screen.), 1834 (Confirmation screen.), 1858 (Summary AID.), 1905 (Counterscreen.)]; format: functional
[17] = target: DNA (cytosine-5)-methyltransferase 1 (Homo sapiens, UniProt P26358); assay: inhibition of DNA methylation by DNMT1 – biochemical, fluorescent molecular beacon, confirmation (AID 602386); format: functional
[18] = target: Induced myeloid leukemia cell differentiation protein Mcl-1 (Homo sapiens, UniProt Q07820); assay: blockers of MCL1 binding to BIM peptide – biochemical, fluorescence polarization, BIM-BH3 peptide, 1536-well, dose response (AID 2217)
Bcl-2-like protein 1 = Bcl-2-like protein 1 (Homo sapiens, UniProt Q07817); assay: blockers of BCLXL peptide binding – biochemical, fluorescence polarization, 1536-well, selectivity assay for MCL1 inhibitor project, dose response (AID 2218)
[19] = target: T3, RNA-binding protein pos-1 (Caenorhabditis elegans, UniProt G5EF15); assay: disruptors of C. elegans POS-1 RNA interaction – biochemical, fluorescence polarization, dose response (AID 1964);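 also: purified POS-1 fused to maltose binding protein made in E. coli; potency of compounds blocking POS-1 binding to fluorescent RNA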
T3 sequence (G5EF15 whole entry): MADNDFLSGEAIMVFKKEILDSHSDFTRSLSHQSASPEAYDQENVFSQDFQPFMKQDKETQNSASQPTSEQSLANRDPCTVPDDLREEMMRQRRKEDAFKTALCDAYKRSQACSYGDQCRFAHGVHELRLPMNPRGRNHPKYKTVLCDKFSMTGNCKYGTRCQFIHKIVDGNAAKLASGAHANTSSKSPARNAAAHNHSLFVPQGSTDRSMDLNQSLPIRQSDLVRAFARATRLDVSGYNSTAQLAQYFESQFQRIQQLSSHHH

[20] = target: T4, Voltage-gated N-type calcium channel alpha-1B subunit/Amyloid beta A4 precursor protein-binding family A member 1 (Homo sapiens, UniProt Q00975+Q02410); format: protein assay
T4 sequence (Q00975 whole entry): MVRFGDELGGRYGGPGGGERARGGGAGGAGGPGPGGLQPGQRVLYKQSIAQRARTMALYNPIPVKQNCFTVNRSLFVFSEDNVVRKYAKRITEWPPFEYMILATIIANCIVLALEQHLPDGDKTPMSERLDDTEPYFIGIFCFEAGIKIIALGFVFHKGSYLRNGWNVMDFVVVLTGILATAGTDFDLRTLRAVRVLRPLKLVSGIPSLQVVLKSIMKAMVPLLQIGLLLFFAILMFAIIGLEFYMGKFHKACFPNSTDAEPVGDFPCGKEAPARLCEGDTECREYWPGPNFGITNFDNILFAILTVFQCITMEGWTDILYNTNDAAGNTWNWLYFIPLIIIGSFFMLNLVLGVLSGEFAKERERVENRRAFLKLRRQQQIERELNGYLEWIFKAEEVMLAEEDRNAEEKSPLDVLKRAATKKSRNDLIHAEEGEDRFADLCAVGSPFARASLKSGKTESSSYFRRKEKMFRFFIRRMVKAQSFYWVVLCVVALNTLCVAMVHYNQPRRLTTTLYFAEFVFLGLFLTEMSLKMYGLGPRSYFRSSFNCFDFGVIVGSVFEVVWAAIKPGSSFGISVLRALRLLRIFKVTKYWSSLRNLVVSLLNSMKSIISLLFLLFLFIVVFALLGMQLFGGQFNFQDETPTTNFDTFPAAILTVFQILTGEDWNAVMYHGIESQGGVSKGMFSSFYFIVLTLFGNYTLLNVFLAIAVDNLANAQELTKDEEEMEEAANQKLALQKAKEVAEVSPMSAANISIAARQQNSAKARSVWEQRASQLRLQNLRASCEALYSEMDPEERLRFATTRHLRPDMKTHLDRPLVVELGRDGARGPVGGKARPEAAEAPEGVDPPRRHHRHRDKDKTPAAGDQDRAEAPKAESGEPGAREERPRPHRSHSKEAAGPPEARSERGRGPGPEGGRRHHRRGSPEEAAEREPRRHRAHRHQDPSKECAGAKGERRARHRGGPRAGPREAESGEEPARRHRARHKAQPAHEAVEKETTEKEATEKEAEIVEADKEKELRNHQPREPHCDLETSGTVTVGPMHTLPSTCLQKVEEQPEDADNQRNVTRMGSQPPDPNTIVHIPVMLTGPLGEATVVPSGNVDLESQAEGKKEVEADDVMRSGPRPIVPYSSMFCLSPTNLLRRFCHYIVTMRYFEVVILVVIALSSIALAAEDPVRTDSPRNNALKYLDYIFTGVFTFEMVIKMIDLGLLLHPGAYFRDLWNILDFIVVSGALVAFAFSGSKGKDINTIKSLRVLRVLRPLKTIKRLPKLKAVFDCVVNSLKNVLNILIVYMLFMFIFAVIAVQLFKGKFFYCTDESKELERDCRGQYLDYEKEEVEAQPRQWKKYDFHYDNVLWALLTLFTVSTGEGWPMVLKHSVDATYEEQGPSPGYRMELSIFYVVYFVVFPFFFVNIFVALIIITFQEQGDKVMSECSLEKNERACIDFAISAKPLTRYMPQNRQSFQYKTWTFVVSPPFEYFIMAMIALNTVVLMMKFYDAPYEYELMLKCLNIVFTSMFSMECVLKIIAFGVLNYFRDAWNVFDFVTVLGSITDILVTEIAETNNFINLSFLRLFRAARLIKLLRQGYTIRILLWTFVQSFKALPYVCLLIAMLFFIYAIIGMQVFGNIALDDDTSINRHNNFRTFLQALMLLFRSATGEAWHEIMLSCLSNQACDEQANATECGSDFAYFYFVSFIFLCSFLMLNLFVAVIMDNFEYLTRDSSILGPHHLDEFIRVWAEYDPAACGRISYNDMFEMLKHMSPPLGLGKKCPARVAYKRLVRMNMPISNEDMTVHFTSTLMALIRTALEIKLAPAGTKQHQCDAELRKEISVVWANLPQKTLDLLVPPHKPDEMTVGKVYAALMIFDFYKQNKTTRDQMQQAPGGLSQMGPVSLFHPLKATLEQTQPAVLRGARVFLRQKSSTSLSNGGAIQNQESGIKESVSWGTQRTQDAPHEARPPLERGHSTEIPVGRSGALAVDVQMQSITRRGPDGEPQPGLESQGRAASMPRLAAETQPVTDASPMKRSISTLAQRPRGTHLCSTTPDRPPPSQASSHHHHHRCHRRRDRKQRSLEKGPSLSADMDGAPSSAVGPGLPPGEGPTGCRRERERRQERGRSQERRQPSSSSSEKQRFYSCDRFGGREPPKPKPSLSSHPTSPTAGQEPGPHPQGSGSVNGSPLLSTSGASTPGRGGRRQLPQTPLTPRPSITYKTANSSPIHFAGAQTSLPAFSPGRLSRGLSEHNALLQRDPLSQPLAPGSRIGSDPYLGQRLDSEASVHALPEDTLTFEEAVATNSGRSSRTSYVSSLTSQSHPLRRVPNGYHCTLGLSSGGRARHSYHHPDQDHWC
T4 sequence (Q02410 whole entry): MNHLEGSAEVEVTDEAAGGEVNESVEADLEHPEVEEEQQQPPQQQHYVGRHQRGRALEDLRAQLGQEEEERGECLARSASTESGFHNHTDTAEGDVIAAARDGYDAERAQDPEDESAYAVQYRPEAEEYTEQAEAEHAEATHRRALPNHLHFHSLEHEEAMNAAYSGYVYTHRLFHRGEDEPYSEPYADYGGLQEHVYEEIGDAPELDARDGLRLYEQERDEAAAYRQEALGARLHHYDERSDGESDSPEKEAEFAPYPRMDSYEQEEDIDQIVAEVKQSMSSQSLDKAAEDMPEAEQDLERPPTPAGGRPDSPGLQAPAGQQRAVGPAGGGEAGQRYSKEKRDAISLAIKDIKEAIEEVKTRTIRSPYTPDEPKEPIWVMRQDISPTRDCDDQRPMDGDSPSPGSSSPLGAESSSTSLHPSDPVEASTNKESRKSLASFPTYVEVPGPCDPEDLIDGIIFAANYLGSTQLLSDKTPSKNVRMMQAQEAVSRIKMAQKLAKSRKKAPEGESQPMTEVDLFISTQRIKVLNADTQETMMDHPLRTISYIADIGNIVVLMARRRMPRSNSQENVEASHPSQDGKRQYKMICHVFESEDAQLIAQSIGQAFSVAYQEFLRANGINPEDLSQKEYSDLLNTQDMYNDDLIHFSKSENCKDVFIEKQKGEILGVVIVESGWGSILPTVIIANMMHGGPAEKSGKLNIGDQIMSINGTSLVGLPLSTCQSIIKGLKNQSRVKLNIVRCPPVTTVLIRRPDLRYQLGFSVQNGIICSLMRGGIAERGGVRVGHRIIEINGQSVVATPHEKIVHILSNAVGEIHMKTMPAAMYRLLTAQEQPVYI

Hexokinase HKDC1 = target: T5, Hexokinase HKDC1 (Homo sapiens, UniProt Q2TB90); assay: inhibition of HKDC1 glucose phosphorylation – biochemical, W721R variant, dose response (AID 504729); format: functional
T5 sequence (Q2TB90 whole entry): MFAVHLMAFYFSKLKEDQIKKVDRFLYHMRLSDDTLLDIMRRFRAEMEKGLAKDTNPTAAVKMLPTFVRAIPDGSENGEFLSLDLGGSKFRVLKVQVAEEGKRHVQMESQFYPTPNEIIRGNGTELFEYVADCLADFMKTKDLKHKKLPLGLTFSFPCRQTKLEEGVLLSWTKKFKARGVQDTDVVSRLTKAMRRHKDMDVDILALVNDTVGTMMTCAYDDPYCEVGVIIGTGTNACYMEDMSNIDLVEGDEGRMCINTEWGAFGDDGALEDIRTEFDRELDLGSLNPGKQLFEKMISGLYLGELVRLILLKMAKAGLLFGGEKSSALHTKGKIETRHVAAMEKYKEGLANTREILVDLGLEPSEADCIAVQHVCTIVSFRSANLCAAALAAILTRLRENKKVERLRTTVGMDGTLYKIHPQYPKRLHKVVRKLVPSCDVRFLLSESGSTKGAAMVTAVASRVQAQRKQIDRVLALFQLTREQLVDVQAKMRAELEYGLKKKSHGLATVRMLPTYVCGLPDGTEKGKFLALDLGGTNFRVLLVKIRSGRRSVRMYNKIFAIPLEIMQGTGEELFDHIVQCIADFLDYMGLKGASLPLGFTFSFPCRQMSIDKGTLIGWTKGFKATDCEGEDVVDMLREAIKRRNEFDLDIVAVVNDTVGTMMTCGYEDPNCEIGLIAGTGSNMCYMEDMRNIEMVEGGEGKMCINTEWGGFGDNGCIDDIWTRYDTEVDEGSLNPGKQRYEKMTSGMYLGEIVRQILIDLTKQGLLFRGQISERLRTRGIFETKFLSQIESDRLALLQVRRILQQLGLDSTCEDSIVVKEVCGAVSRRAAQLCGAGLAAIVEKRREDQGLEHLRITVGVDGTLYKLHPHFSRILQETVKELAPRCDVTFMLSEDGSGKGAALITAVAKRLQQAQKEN

[21] = target: T6, Zinc finger protein mex-5 (Caenorhabditis elegans, UniProt Q9XUB2); assay: potency of MEX-5 RNA-binding blockers – biochemical, C. elegans, fluorescence polarization, dose response (AID 1960)
T6 sequence (Q9XUB2 whole entry): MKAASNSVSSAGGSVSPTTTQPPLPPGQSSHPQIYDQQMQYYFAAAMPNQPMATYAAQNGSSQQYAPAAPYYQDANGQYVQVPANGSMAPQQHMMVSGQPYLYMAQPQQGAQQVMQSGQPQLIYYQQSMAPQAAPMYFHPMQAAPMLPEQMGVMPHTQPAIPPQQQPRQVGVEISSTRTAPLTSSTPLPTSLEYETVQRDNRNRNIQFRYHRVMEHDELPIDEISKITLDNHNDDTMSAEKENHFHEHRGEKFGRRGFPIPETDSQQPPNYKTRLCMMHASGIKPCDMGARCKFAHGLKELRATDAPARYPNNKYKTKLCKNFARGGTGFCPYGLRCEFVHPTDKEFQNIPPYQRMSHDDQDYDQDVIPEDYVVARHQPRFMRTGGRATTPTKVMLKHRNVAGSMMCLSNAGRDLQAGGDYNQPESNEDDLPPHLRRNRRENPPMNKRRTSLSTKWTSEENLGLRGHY

[22] = target: T4, Voltage-gated N-type calcium channel alpha-1B subunit/Amyloid beta A4 precursor protein-binding family A member 1; format: protein assay; remark: listed apart in the source
Bcl-2-like protein 10 = target: T7, Bcl-2-like protein 10 (Homo sapiens, UniProt Q9HD36); assay: Concentration-response of Bcl-B inhibitors by biochemical FP with TR3 (AID 1243); format: functional
T7 sequence (Q9HD36 whole entry): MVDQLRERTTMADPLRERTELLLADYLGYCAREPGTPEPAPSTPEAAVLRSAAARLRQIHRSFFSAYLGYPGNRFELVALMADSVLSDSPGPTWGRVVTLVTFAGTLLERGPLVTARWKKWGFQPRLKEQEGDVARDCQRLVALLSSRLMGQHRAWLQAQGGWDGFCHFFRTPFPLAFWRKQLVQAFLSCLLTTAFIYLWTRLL

[23] = off-target signal loss in HeLa-CEM21 co-culture – HeLa F-luc CTL cells, cherry-picked, counter-screen for HIV-1 Env fusion inhibitor project, dose response (AID 652040); format: functional, cell-based;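 also: potency for signal decrease marking cytotoxic or nonspecific inhibition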
[24] = target: Neuropeptide Y receptor type 1 (Homo sapiens, UniProt P25929); format: functional;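 also: HEK293 cells with a CNG channel challenged with NPY then isoproterenol; potency as antagonist that reverses NPY suppression of cAMP signal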
[25] = target: Neuropeptide Y receptor type 2 (Homo sapiens, UniProt P49146); format: functional, cell-based;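 also: HEK293 cells expressing the receptor and a CNG channel; stimulus was NPY near EC95 followed by isoproterenol to raise cAMP; antagonist potency measured as restoring cAMP signal that NPY suppresses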
[26] = viability loss in CEM21 cells – cell-based, CellTiter-Glo luminescence, cherry-picked, cytotoxicity control for viral fusion inhibitor project, dose response (AID 652042); format: functional;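 also: potency for signal decrease meaning cytotoxicity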
[27] = viability loss in CEM21 cells – cell-based, plate reader, dry powder, cytotoxicity control, dose response (AID 687026); format: functional
[28] = blockers of HIV-1 envelope-mediated cell-cell fusion – cherry-pick, dose response (AID 652057); format: functional, cell-based

T1 sequence (P08659 whole entry): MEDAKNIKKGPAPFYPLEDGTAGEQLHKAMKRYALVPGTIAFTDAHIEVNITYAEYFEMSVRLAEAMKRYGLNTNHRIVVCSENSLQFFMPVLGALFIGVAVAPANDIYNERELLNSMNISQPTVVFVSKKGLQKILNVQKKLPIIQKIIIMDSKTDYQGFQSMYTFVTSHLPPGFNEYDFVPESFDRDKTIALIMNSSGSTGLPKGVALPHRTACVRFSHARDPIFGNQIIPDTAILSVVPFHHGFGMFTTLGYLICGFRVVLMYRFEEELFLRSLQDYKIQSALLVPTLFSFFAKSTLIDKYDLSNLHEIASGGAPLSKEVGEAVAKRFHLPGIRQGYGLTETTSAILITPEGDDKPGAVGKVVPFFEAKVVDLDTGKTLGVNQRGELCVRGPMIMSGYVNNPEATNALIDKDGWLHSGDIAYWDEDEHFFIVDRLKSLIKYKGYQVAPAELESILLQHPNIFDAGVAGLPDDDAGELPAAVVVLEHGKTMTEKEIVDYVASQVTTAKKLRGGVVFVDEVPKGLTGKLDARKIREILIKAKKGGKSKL

Cc1ccsc1/C=C1\CCc2ccccc2C1=O
EC50 [1]: 0.518 µM (active) | EC50 [2]: 0.89 µM (active) | EC50 [3]: 2.43 µM (active) | EC50 (HT-1080): > 50 µM (not active)

CC(C)(C)c1ccc(OCC(=O)NNC(=S)NC(=O)c2ccccc2[N+](=O)[O-])c(Br)c1
IC50 [4]: > 50 µM (active) | CC50 (Vero): > 40 µM (active) | IC50 (Genome polyprotein): 56 µM (active)

COc1ccc(CC(=O)Nc2cccc(-c3nnc(-c4cccc(C)c4)o3)c2)cc1OC
AC50 (INS1): 2.47 µM (active) | AC50 [5]: 47.6 µM (active) | EC50 (H4): 118 µM (active) | EC50 [6]: 15 µM (active) | EC50 [7]: 29.5 µM (inactive) | IC50 [8]: 5.21 µM (active) | IC50 [9]: 1.76 µM (active) | AC50 [10]: 10.5 µM (active) | EC50 [11]: 6.16 µM (active) | AC50 [12]: 8.16 µM (active) | IC50 [13]: 2.35 µM (active)

COc1cc2[nH]c(=S)n(CCCC(=O)N3CCN(c4cccc(Cl)c4)CC3)c(=O)c2cc1OC
IC50 (Estrogen receptor): 2.36 µM (not active)

CN(C)c1ccc(/C=C/c2nc(O)c3ccccc3n2)cc1
EC50 [14]: 5.96 µM (active) | EC50 [15]: 4.08 µM (active) | IC50 [16]: 32.3 µM (not active)

O=C(CNC(=O)/C=C/c1ccco1)N=Nc1c(O)[nH]c2ccccc12
IC50 [17]: 3.25 µM (active) | IC50 [18]: 9.7 µM (active) | IC50 (Bcl-2-like protein 1): 37.1 µM (not active) | EC50 [19]: 13.1 µM (inconclusive) | IC50 [20]: > 56.8 µM (not active) | IC50 (Hexokinase HKDC1): 25.3 µM (inactive) | EC50 [21]: 5.49 µM (active) | IC50 [22]: 4.97 µM (active)

Cc1ccc(C(=O)c2coc3c2C(=O)C(=O)C(Cl)=C3Cl)cc1
EC50 (Bcl-2-like protein 10): 6.17 µM (active)

COc1ccccc1CCNCc1ccc(OC)c(OCc2ccccc2)c1
AC50 [23]: > 70 µM (inactive) | IC50 [24]: 9.05 µM (active) | IC50 [25]: 1.97 µM (active) | AC50 [26]: 54.1 µM (active) | AC50 [27]: > 70 µM (inactive) | AC50 [28]: 2.11 µM (active)
